Measurements from article PMC10564737, “Structure-based design of a phosphotyrosine-masked covalent ligand targeting the E3 ligase SOCS2” (Nature Communications, 2023).
“And” between values parts separate entries of the source, which are not always exact repeats. Equal values may be shown once.

What was measured:
[1] = biological target: T1, HiBiT-SOCS2 fusion in HeLa cells (Homo sapiens, UniProt O14508); assay: Split-NanoLuc CETSA, live-cell mode; type: cell-based; parameters: Produrg CETSA screening, raw signal: reference not given here; conditions: for Produrg CETSA screening, raw signal: 50uM 20hrs; for ΔT / ΔT, individual replicates n1-n3: Prodrug screen CETSA; for ΔT: live HeLa cells, 50 μM, 20 h, Mean n = 3; for ΔT, individual replicates n1-n3: single replicates
T1 construct: encoding SOCS2 (32–198) in pBiT3.1-N expression vector; expressed in transfected cells; host or cells: HeLa
T1 sequence (O14508 32-198): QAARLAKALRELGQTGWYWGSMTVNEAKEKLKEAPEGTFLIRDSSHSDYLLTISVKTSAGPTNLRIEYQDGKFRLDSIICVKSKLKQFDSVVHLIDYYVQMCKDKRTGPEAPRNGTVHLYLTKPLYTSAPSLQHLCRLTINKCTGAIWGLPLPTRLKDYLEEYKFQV
T1 sequence (Q15370 whole entry, further chain, the tested form may be a part): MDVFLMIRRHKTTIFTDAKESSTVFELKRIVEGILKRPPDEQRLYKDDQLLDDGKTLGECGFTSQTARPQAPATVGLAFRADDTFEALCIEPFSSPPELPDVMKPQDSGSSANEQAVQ
T1 sequence (Q15369 whole entry, further chain, the tested form may be a part): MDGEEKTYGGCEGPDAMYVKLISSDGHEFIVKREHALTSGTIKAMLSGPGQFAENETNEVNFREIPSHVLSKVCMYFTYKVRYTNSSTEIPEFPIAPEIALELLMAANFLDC
Description: One of the challenges with small-molecule binders displaying on-target activity with recombinant proteins, is to translate their utility to a cellular context. […] One of the advantages of CETSA is that target engagement can be monitored without the need for the development of a cell-permeable tracer molecule.
We utilized CETSA in a live-cell mode to evaluate the efficacy and rank the different prodrugs. We treated live HeLa cells with 50 μM compound (prodrugs) for 20 h and monitored Tagg shift as a proxy for the combo of prodrug permeability and unmasking (Fig. 4d). […] The observation could be because the POM group unmasking requires only esterase unlike the reliance of compounds 21–23 on esterase and phosphoramidase for unmasking an aryloxy phosphoramidate group.
N-terminal HiBiT-SOCS2 fusion was generated by encoding SOCS2 (32–198) in pBiT3.1-N expression vector (Promega). The transfection and target engagement assay were performed by modifying a NanoLuc target engagement protocol (Promega) with some small modifications. Briefly, HiBiT-SOCS2 fusion construct was transfected into HeLa cells using FuGENE HD (Promega) according to the manufacturer’s protocol. HiBiT-SOCS2 fusion construct was diluted into Transfection Carrier DNA (Promega) at a mass ratio of 1:100 or 1:10 for permeabilised and live-cell CETSA respectively. FuGENE HD was added at a ratio of 1:3 (μg DNA: μL FuGENE HD). 1 part (vol) of FuGENE HD complexes thus formed were combined with 20 parts (vol) of HeLa cells suspended at a density of 2 × 10^5 cells/mL, followed by incubation in a humidified, 37 °C + 5% CO2 incubator. After 20 h of incubation HeLa cells were detached and resuspended at a density of 2.5 × 10^5 cells/mL in Opti-MEM media without serum or phenol red but supplemented with protease inhibitor cocktail (Roche). Compounds stocks were added to cell suspension to maintain a final DMSO concentration of 1%. For the permeabilised assay format, 96-well PCR plates (Thermo) were pre-treated with digitonin to have a final well concentration of 50 μg/ml. 50 μl Opti-MEM cell suspension was then aliquoted to each well of the 96-well plate. The plates are then covered with microporous tape sheet (Qiagen) prior to incubation in a humidified, 37 °C + 5% CO2 incubator. Post-incubation we heat the PCR plates in 16-point temperature (split across two runs) curve spanning degrees 40-72 °C temperature span (CFX96 Touch Real-Time PCR Detection System, BioRad). The thermal cycler block was allowed to rise to the designated temperatures prior to placement of the PCR plates into the heating block and heat treatment for 3 min. After incubating the plates at room temperature for over 3 min, 50 μl of the Nano-Glo HiBiT Lytic mix (Promega) was added to each well. Samples were mixed by pipetting and placing the plate on an orbital shaker (600 rpm) for 5 min. 20 μl of the samples (in triplicates) were transferred to a AlphaPlate-384 plate (Perkin Elmer). Luminescence was recorded with GloMax Discover Microplate Reader (Promega). To generate apparent Tagg curves, the data is first converted to percent stabilized by relating the observed luminescence to the luminescence of the lowest temperature (40 °C) for that given sample. Data are then fitted to obtain apparent Tagg values using the Boltzmann Sigmoid equation using Graphpad Prism 9.

SBC2 = biological target: T2, SBC2 (Homo sapiens, UniProt O14508); assay: Covalent fluorescence polarization (FP) probe displacement assay; type: binding; conditions: SBC2 titration with 10 nM probe; read-out: KD of fluorescent probe measured with FP
T2 construct: SOCS2 (amino acids 32–198); His6 (N, cleaved yes); made in house; host or cells: E. coli BL21(DE3)
T2 sequence (O14508 32-198): as the sequence (O14508 32-198) above
T2 sequence (Q15370 1-104 partner limits assumed): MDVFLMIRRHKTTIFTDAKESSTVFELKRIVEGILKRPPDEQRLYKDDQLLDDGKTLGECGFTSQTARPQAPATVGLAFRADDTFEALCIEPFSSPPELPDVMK
T2 sequence (Q15369 17-112 partner limits assumed): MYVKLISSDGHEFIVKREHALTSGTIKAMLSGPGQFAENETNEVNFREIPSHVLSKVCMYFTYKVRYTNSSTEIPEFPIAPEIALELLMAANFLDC
Description: With the specific covalent modification of Cys111 established, we decided to fully characterize MN551 as a covalent SOCS2 inhibitor. […] (Fig. 2g, h, Supplementary Fig. 9). Due to the covalent nature of the competing inhibitor, a time-dependent reduction in the fraction of protein-bound probe is observed. […] This value illustrates reasonable specificity for a covalent inhibitor, with nonetheless scope for future optimization. In addition to characterizing the kinetic covalency parameters, we have also assessed the stability of the MN551 by monitoring its reactivity (half-life >70 min) with reduced glutathione (GSH) (Supplementary Fig. 10)[35].
To monitor the SBC2-ligand binding kinetics we designed a fluorescein-labeled small-molecule probe - compound 26. The fluorescence polarization (anisotropy) of a threefold serial dilution of 50 µM SBC2 in 10 nM of the probe in 100 mM HEPES pH 7.5, 50 mM NaCl, 0.5 mM TCEP, 2% DMSO was measured to determine the KL (Supplementary Fig. 9A) (BMG Labtech PHERAstar – firmware v1.33). Protein titration and the curves were fitted using GraphPad Prism 9, using one-site fitting models to determine the probe binding constant, KL. Samples were run in triplicate in 384 well plates, using a total volume per well of 16 μL. The bound fraction of the probe is measure using the equation:1 Fb=Af−A/Af−Ab Where,
A time-dependent reduction in probe anisotropy were measured for a 2-fold serial dilution of […] compound MN551 in 10 nM probe +300 μM SBC2. To determine the initial reversible binding affinity, the initial bound fraction of the probe at time = 0, Fbo (the y-intercept in Fb v/s Time plot, Supplementary Fig. 9B) was plotted against MN551 concentration, and the obtained IC50 is then converted to Ki (Supplementary Fig. 9C)[17]. The slope from Fb versus time graph when divided by Fbo gives rate of covalency, kobs. A plot of kobs v/s MN551 concentration using Michaelis–Menten model of GraphPad Prism 9, provides the parameters kinact (maximum potential rate of inactivation) and KI (concentration of MN551 at which kobs = kinact/2) (Supplementary Fig. 9D, E).
The observed first-order rate constant, kobs is related to KI and kinact by the equation:2 kobs=kinactI/KI+I
At [I]«[KI] the above equation is converted to3 […]
The slope from the plot of kobs against concentration of MN551 gives us the covalent efficiency parameter kinact/KI (Supp Fig. 9F)[30],[33].

SMILES: COC(=O)[C@H](C)NP(=O)(Oc1ccc(C[C@H](NC(=O)Cc2ccc(F)cc2)C(=O)NCc2cccc(NC(=O)CCl)c2)cc1)Oc1cccc2ccccc12 (stereo partly drawn) [Compound 21]
- Produrg CETSA screening, raw signal ([1]; n=1, temperature point 4 of 16, temperature not given): 91803 and 91466 and 172287
- Produrg CETSA screening, raw signal ([1]; n=1, temperature point 5 of 16, temperature not given): 75745 and 107243 and 102225
- Produrg CETSA screening, raw signal ([1]; n=1, temperature point 6 of 16, temperature not given): 90752 and 132144 and 123125
- Produrg CETSA screening, raw signal ([1]; n=1, temperature point 7 of 16, temperature not given): 129001 and 137550 and 230259
- Produrg CETSA screening, raw signal ([1]; n=1, temperature point 8 of 16, temperature not given): 138976 and 169925 and 177765
- Produrg CETSA screening, raw signal ([1]; n=1, temperature point 9 of 16, temperature not given): 198178 and 192764 and 223087
- Produrg CETSA screening, raw signal ([1]; n=1, temperature point 10 of 16, temperature not given): 187698 and 251675 and 298741
- Produrg CETSA screening, raw signal ([1]; n=1, temperature point 11 of 16, temperature not given): 267213 and 290800 and 310548
- Produrg CETSA screening, raw signal ([1]; n=1, temperature point 12 of 16, temperature not given): 360938 and 373247 and 422856
- Produrg CETSA screening, raw signal ([1]; n=1, temperature point 13 of 16, temperature not given): 434129 and 461596 and 480477
- Produrg CETSA screening, raw signal ([1]; n=1, temperature point 14 of 16, temperature not given): 437890 and 471533 and 565224
- Produrg CETSA screening, raw signal ([1]; n=1, temperature point 15 of 16, temperature not given): 465739 and 467737 and 561619
- Produrg CETSA screening, raw signal ([1]; n=1, temperature point 16 of 16, temperature not given): 441792 and 461249 and 531619
- Produrg CETSA screening, raw signal ([1]; n=2, temperature point 1 of 16, temperature not given): 100426 and 115227 and 145975
- Produrg CETSA screening, raw signal ([1]; n=2, temperature point 2 of 16, temperature not given): 100401 and 85507 and 140649
- Produrg CETSA screening, raw signal ([1]; n=2, temperature point 3 of 16, temperature not given): 123706 and 103110 and 202648
- Produrg CETSA screening, raw signal ([1]; n=2, temperature point 4 of 16, temperature not given): 103160 and 69960 and 120366
- Produrg CETSA screening, raw signal ([1]; n=2, temperature point 5 of 16, temperature not given): 75996 and 86411 and 132074
- Produrg CETSA screening, raw signal ([1]; n=2, temperature point 6 of 16, temperature not given): 123683 and 120963 and 144901
- Produrg CETSA screening, raw signal ([1]; n=2, temperature point 7 of 16, temperature not given): 143611 and 177701 and 227556
- Produrg CETSA screening, raw signal ([1]; n=2, temperature point 8 of 16, temperature not given): 172997 and 193471 and 214613
- Produrg CETSA screening, raw signal ([1]; n=2, temperature point 9 of 16, temperature not given): 198669 and 236779 and 246686
- Produrg CETSA screening, raw signal ([1]; n=2, temperature point 10 of 16, temperature not given): 209139 and 261273 and 295556
- Produrg CETSA screening, raw signal ([1]; n=2, temperature point 11 of 16, temperature not given): 246514 and 287579 and 323688
- Produrg CETSA screening, raw signal ([1]; n=2, temperature point 12 of 16, temperature not given): 393463 and 428191 and 449673
- Produrg CETSA screening, raw signal ([1]; n=2, temperature point 13 of 16, temperature not given): 441856 and 476194 and 509704
- Produrg CETSA screening, raw signal ([1]; n=2, temperature point 14 of 16, temperature not given): 497788 and 532165 and 547547
- Produrg CETSA screening, raw signal ([1]; n=2, temperature point 15 of 16, temperature not given): 523691 and 513819 and 551344
- Produrg CETSA screening, raw signal ([1]; n=2, temperature point 16 of 16, temperature not given): 478273 and 472552 and 530261
- Produrg CETSA screening, raw signal ([1]; n=3, Temp, 0C 62.3): 20167
- Produrg CETSA screening, raw signal ([1]; n=3, Temp, 0C 66.1): 12666 and 19260 and 24872
- Produrg CETSA screening, raw signal ([1]; n=3, Temp, 0C 69.3): 18005 and 19840 and 24313
- Produrg CETSA screening, raw signal ([1]; n=3, Temp, 0C 71.1): 19926 and 19187 and 22421
- Produrg CETSA screening, raw signal ([1]; n=3, Temp, 0C 72): 14765 and 18884 and 20941
- ΔT [1]: 0.60 oC
- ΔT, individual replicates n1-n3 [1]: 1.03 oC and -0.02 oC and 0.80 oC

SMILES: CC(C)OC(=O)[C@H](C)NP(=O)(Oc1ccc(C[C@H](NC(=O)Cc2ccc(F)cc2)C(=O)NCc2cccc(NC(=O)CCl)c2)cc1)Oc1cccc2ccccc12 (stereo partly drawn) [Compound 22]
- ΔT [1]: 2.37 oC
- ΔT, individual replicates n1-n3 [1]: 2.11 oC and 3.40 oC and 1.59 oC

SMILES: Cc1cc(CNC(=O)[C@H](Cc2ccc(OP(=O)(O)O)cc2)NC(=O)Cc2ccc(F)cc2OCCNC(=S)Nc2ccc3c(c2)C(=O)OC32c3ccc(O)cc3Oc3cc(O)ccc32)ccc1Cl [Compound 26]
- Kd (SBC2): 77.6 nM
